Results reported in PMC12136037, “Type II kinase inhibitors that target Parkinson’s disease–associated LRRK2” (Science Advances, 2025).
“And” between values parts separate entries of the source, which are not always exact repeats. Equal values may be shown once.

Experiments:
LRRK2^RCKW = biological target: T1, LRRK2^RCKW (Homo sapiens, UniProt Q5S007); test: Biochemical LRRK2 activity assay (PhosphoSense, AssayQuant SOX peptide AQT0615); conditions: for normalized response (LRRK2 activity): normalized to 0% (no kinase) and 100% (no inhibitor) control, two singlicate columns per compound; for IC50: LRRK2^RCKW kinase activity, in vitro
T1 construct: LRRK2 R1327 to E2527; His6-Z-tag (TEV cleavable) (N, cleaved yes); host or cells: Sf9 insect cells (baculovirus)
T1 sequence (Q5S007 1327-2527): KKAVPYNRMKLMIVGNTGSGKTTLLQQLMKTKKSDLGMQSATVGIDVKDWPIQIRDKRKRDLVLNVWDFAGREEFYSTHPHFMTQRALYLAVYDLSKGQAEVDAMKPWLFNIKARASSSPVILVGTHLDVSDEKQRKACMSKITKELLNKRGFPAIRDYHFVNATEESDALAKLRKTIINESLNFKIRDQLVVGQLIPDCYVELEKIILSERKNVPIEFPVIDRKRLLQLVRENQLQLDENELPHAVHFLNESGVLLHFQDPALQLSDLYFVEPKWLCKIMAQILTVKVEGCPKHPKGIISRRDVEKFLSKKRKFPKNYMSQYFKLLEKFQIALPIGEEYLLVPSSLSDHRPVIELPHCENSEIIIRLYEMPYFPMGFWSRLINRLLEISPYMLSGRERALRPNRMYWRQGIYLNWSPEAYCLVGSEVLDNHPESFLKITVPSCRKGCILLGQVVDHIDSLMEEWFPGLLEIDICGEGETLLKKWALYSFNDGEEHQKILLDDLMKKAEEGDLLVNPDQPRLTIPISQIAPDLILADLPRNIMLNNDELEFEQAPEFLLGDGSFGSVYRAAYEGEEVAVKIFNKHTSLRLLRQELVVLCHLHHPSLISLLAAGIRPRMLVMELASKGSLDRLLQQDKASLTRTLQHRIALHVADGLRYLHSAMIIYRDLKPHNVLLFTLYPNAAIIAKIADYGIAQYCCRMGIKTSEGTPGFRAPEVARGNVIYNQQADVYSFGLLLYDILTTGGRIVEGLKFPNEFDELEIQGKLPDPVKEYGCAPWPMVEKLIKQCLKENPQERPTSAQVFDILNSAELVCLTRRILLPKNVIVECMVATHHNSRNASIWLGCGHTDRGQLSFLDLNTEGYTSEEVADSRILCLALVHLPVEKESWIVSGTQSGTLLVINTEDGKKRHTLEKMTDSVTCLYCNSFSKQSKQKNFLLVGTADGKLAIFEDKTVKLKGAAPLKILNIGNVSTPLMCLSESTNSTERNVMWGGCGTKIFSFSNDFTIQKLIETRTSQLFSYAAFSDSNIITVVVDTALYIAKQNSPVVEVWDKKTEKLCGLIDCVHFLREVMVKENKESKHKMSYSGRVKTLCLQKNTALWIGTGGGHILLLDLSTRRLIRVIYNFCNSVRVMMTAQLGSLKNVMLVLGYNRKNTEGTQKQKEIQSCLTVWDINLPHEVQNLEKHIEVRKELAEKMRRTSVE
Outline: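 Controls lacked protein and compound (0%) or compound only (100%). IC50 derived by nonlinear regression of normalized response versus log[inhibitor].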

[1] = biological target: T2, ~100 representative kinases (Homo sapiens, UniProt O75385); test: DSF 100 kinase selectivity screen; type: binding; conditions: Protein ULK1; DSF; average of three replicates;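 note: compound tested at 20 µM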
T2 construct: Recombinant protein kinase domains with a concentration of 2 μM
T2 sequence (O75385 1-1050): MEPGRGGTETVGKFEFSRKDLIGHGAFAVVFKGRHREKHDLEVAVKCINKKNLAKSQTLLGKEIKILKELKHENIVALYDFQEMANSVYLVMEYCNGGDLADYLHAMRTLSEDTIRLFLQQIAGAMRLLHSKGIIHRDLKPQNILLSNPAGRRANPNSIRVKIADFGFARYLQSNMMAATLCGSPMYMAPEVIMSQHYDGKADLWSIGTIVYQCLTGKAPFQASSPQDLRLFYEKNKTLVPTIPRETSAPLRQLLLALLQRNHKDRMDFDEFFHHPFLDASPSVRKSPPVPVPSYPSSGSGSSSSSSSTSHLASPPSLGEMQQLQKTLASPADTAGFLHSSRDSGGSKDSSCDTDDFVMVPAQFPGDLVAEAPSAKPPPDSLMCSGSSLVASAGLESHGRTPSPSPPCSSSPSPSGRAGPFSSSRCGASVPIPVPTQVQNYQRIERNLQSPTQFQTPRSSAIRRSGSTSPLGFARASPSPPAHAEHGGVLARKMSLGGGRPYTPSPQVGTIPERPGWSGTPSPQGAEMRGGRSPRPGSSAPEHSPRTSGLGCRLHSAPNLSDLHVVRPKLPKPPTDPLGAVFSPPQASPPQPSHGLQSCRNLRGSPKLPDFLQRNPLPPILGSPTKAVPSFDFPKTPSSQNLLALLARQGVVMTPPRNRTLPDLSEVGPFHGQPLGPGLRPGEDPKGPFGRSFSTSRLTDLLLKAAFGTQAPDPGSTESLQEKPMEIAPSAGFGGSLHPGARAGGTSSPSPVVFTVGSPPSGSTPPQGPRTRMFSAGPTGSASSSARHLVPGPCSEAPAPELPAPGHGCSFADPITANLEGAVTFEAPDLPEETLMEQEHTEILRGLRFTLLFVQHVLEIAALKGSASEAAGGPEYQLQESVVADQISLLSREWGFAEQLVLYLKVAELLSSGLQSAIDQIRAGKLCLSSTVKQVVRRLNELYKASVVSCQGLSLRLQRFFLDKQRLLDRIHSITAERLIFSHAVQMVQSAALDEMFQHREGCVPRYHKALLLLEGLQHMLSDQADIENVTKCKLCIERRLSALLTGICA
Outline: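 Each kinase domain, at 2 μM, is mixed with 20 μM test compound and SYPRO Orange in Hepes (20 mM, pH 7.5) with 500 mM NaCl. Temperature is then raised at 3°C/min and fluorescence-monitored unfolding yields the melting temperature change, ΔTm in degrees Celsius.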

normalized response (LRRK2 activity) (LRRK2^RCKW; log[inhibitor(mol)] -5.12494) | normalized response (LRRK2 activity) (LRRK2^RCKW; log[inhibitor(mol)] -5.60206) | normalized response (LRRK2 activity) (LRRK2^RCKW; log[inhibitor(mol)] -6.30103) | normalized response (LRRK2 activity) (LRRK2^RCKW; log[inhibitor(mol)] -6.90309) | normalized response (LRRK2 activity) (LRRK2^RCKW; log[inhibitor(mol)] -7.30103) | normalized response (LRRK2 activity) (LRRK2^RCKW; log[inhibitor(mol)] -7.60206) | normalized response (LRRK2 activity) (LRRK2^RCKW; log[inhibitor(mol)] -8.09691) | normalized response (LRRK2 activity) (LRRK2^RCKW; log[inhibitor(mol)] -8.61979) | normalized response (LRRK2 activity) (LRRK2^RCKW; log[inhibitor(mol)] -9.09691) | normalized response (LRRK2 activity) (LRRK2^RCKW; log[inhibitor(mol)] -9.39794) | dTm [1] [K] | IC50 (LRRK2^RCKW) [nM] | normalized response (LRRK2 activity) (LRRK2^RCKW; log[inhibitor(mol)] -4.82391) | SMILES
-8.142% and -8.098% | -6.069% and -3.667% | 1.516% and 5.662% | 27.0499% and 37.6124% | 59.8343% and 70.8356% | 80.8168% and 85.4399% | 99.1997% and 109.801% | 111.451% and 122.71% | 117.928% and 123.215% | 115.57% and 119.935% | 2.80 | 82.4 ± 19 | – | CC(=O)N1CCN(c2nc(Cl)nc3[nH]cc(-c4cccc(NC(=O)Nc5cc(C(C)(C)C)nn5-c5ccc(C)cc5)c4)c23)CC1 [Compound 31]
9.123% and 11.3015% | 44.4326% and 42.5431% | 13.6454% and 21.2987% | 53.1512% and 54.1949% | 78.8268% and 70.6625% | 83.0818% and 80.8923% | 91.3569% and 90.9395% | 93.5464% and 85.6887% | 97.2382% and 103.098% | 97.1774% and 94.1421% | 8.48 | 134 ± 5 | 1.939% and 8.5359% | O=C(Nc1cccc(-c2c[nH]c3ncnc(N4CCOCC4)c23)c1)C1(C(=O)Nc2ccc(F)c(Br)c2F)CC1 [Compound 26]
2.952% and 3.194% | -7.27% and -5.12% | -12.6171% and -9.349% | -7.193% and -5.751% | 5.9468% and 5.579% | 17.6994% and 24.1378% | 34.6729% and 53.1381% | 84.0195% and 83.6411% | 89.904% and 89.2624% | 99.9785% and 100.571% | -0.88 | 7.21 ± 2.1 | 24.6753% and 13.9482% | COc1cc(S(C)(=O)=O)ccc1Nc1nc(N(C)C)c2c(Cl)c[nH]c2n1 [Compound 37]
11.3407% and 2.1893% | 26.743% and 30.013% | 46.8199% and 60.7415% | 90.6286% and 91.37% | 100.861% and 98.8124% | 104.989% and 102.561% | 99.7669% and 103.043% | 100.861% and 99.0776% | 103.172% and 100.678% | 101.258% and 104.313% | 6.92 | 989 ± 32 | 10.5992% and 8.534% | O=C(Nc1cccc(-c2c[nH]c3ncnc(N4CCOCC4)c23)c1)C1(C(=O)Nc2cccc3c2CCC3)CC1 [Compound 11]

SMILES | normalized response (LRRK2 activity) (LRRK2^RCKW; log[inhibitor(mol)] -5.12494) | normalized response (LRRK2 activity) (LRRK2^RCKW; log[inhibitor(mol)] -5.60206) | normalized response (LRRK2 activity) (LRRK2^RCKW; log[inhibitor(mol)] -6.30103) | normalized response (LRRK2 activity) (LRRK2^RCKW; log[inhibitor(mol)] -6.90309) | normalized response (LRRK2 activity) (LRRK2^RCKW; log[inhibitor(mol)] -7.30103) | normalized response (LRRK2 activity) (LRRK2^RCKW; log[inhibitor(mol)] -7.60206) | normalized response (LRRK2 activity) (LRRK2^RCKW; log[inhibitor(mol)] -8.09691) | normalized response (LRRK2 activity) (LRRK2^RCKW; log[inhibitor(mol)] -8.61979) | normalized response (LRRK2 activity) (LRRK2^RCKW; log[inhibitor(mol)] -9.09691) | normalized response (LRRK2 activity) (LRRK2^RCKW; log[inhibitor(mol)] -9.39794) | dTm [1] [K] | IC50 (LRRK2^RCKW) [nM] | normalized response (LRRK2 activity) (LRRK2^RCKW; log[inhibitor(mol)] -4.82391)
CNC(=O)c1cc(Oc2ccc(NC(=O)Nc3cc(C(C)(C)C)nn3-c3ccc4ncccc4c3)c(F)c2)ccn1 [Rebastinib, reference compound] | -10.5496% and -14.6792% | -7.259% and -5.877% | 2.212% and 3.3144% | 28.2838% and 28.5032% | 54.9753% and 51.2954% | 71.3236% and 68.1209% | 89.2569% and 91.5273% | 98.1961% and 113.387% | 109.62% and 109.044% | 108.15% and 116.184% | 5.73 | – | –
